# From ChEMBL document CHEMBL1143794, “Discovery of [7-(2,6-dichlorophenyl)-5-methylbenzo [1,2,4]triazin-3-yl]-[4-(2-pyrrolidin-1-ylethoxy)phenyl]amine--a potent, orally active Src kinase inhibitor with anti-tumor activity in preclinical assays” (Bioorg Med Chem Lett, 2007)
# pIC50, pKi: −log10 of the molar value.
# How the values were obtained:
# [1] = biological target: Proto-oncogene tyrosine-protein kinase Src (Homo sapiens, UniProt P12931)
# [2] = tested on: CT26; experiment: Antitumor activity against mouse CT26 cells; assay type: functional, cell-based
# [3] = tested on: COLO 205; experiment: Antitumor activity against Colo205 cells; assay type: functional, cell-based; conditions: Homo sapiens
# [4] = biological target: Cytochrome P450 2C19 (Homo sapiens, UniProt P33261); experiment: Inhibition of CYP2C19; assay type: ADME
# [5] = tested on: A549; experiment: Antitumor activity against A549 cells; assay type: functional, cell-based; conditions: Homo sapiens
# [6] = tested on: Rattus norvegicus; experiment: Volume of distribution in rat at 25 mg/kg, po; assay type: ADME, organism-based; parameters: dose 25 mg/kg, route oral; conditions: in vivo
# [7] = biological target: T1, Cytochrome P450 1A2 (Homo sapiens, UniProt P05177); experiment: Inhibition of CYP1A2; assay type: ADME
# T1 sequence (P05177 whole entry): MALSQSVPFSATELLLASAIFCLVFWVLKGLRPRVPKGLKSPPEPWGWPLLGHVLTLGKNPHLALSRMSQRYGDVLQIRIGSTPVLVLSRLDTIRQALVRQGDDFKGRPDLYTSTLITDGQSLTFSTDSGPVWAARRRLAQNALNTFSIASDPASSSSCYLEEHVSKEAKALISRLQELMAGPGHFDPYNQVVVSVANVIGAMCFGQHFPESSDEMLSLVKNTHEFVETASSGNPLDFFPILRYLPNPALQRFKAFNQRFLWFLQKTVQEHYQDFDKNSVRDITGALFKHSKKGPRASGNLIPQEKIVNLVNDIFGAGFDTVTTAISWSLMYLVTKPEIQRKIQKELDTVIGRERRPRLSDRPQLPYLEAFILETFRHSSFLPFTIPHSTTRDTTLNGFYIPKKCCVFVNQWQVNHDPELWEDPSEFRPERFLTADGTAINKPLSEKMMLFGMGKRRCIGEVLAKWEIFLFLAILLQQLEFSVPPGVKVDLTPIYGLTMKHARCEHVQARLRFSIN
# [8] = tested on: K562; experiment: Antitumor activity against K562 cells; assay type: functional, cell-based; conditions: Homo sapiens
# [9] = tested on: MDA-MB-231; experiment: Antitumor activity against MDA-MB-231 cells; assay type: functional, cell-based; conditions: Homo sapiens
# [10] = Cmax in rat at 25 mg/kg, po; assay type: ADME, organism-based; parameters: dose 25 mg/kg, route oral; conditions: in vivo
# [11] = tested on: Mus musculus; experiment: Volume of distribution in mouse at 25 mg/kg, po; assay type: ADME, organism-based; parameters: dose 25 mg/kg, route oral; conditions: in vivo
# [12] = Tmax in rat at 25 mg/kg, po; assay type: ADME, organism-based; parameters: dose 25 mg/kg, route oral; conditions: in vivo
# [13] = tested on: Canis familiaris; experiment: Volume of distribution in dog at 25 mg/kg, po; assay type: ADME, organism-based, Canis lupus familiaris; parameters: dose 25 mg/kg, route oral; conditions: in vivo
# [14] = tested on: Rattus norvegicus; experiment: AUC in rat at 25 mg/kg, po; assay type: ADME, organism-based, Plasma; parameters: dose 25 mg/kg, route oral; conditions: in vivo
# [15] = tested on: HT-29; experiment: Antitumor activity against HT29 cells; assay type: functional, cell-based; conditions: Homo sapiens
# [16] = Tmax in mouse at 25 mg/kg, po; assay type: ADME, organism-based; parameters: dose 25 mg/kg, route oral; conditions: in vivo
# [17] = biological target: Cytochrome P450 2C9 (Homo sapiens, UniProt P11712); experiment: Inhibition of CYP2C9; assay type: ADME
# [18] = Half life in dog at 25 mg/kg, po; assay type: ADME, organism-based, Canis lupus familiaris; parameters: dose 25 mg/kg, route oral; conditions: in vivo
# [19] = biological target: Cytochrome P450 3A4 (Homo sapiens, UniProt P08684); experiment: Inhibition of CYP3A4; assay type: ADME
# [20] = tested on: MOLT-4; experiment: Antitumor activity against Molt4 cells; assay type: functional, cell-based; conditions: Homo sapiens
# [21] = tested on: CT26; experiment: Reduction of tumor volume in CT26 xenografted in BALB/c mouse at 50 mg/kg, ip relative to control; assay type: functional; parameters: scale not given: the % may be the effect or the level left; conditions: route intraperitoneal
# [22] = Bioavailability in dog at 25 mg/kg, po; assay type: ADME, organism-based, Canis lupus familiaris; conditions: in vivo
# [23] = Clearance in mouse at 25 mg/kg, po; assay type: ADME, organism-based; parameters: dose 25 mg/kg, route oral; conditions: in vivo
# [24] = biological target: Cytochrome P450 2D6 (Homo sapiens, UniProt P10635); experiment: Inhibition of CYP2D6; assay type: ADME
# [25] = Cmax in dog at 25 mg/kg, po; assay type: ADME, organism-based, Canis lupus familiaris; parameters: dose 25 mg/kg, route oral; conditions: in vivo
# [26] = Tmax in dog at 25 mg/kg, po; assay type: ADME, organism-based, Canis lupus familiaris; parameters: dose 25 mg/kg, route oral; conditions: in vivo
# [27] = Half life in mouse at 25 mg/kg, po; assay type: ADME, organism-based; parameters: dose 25 mg/kg, route oral; conditions: in vivo
# [28] = Clearance in dog at 25 mg/kg, po; assay type: ADME, organism-based, Canis lupus familiaris; parameters: dose 25 mg/kg, route oral; conditions: in vivo
# [29] = tested on: A549; experiment: Reduction of tumor burden in A549 cells xenografted in nu/nu mouse at 40 mg/kg, ip relative to control; assay type: functional; parameters: scale not given: the % may be the effect or the level left; conditions: route intraperitoneal
# [30] = tested on: Mus musculus; experiment: AUC in mouse at 25 mg/kg, po; assay type: ADME, organism-based, Plasma; parameters: dose 25 mg/kg, route oral; conditions: in vivo
# [31] = Bioavailability in mouse at 25 mg/kg, po; assay type: ADME, organism-based; conditions: in vivo
# [32] = Cmax in mouse at 25 mg/kg, po; assay type: ADME, organism-based; parameters: dose 25 mg/kg, route oral; conditions: in vivo
# [33] = Clearance in rat at 25 mg/kg, po; assay type: ADME, organism-based; parameters: dose 25 mg/kg, route oral; conditions: in vivo
# [34] = tested on: Canis familiaris; experiment: AUC in dog at 25 mg/kg, po; assay type: ADME, organism-based, Canis lupus familiaris, Plasma; parameters: dose 25 mg/kg, route oral; conditions: in vivo
# [35] = Bioavailability in rat at 25 mg/kg, po; assay type: ADME, organism-based; conditions: in vivo
# [36] = tested on: MCF7; experiment: Antitumor activity against MCF7 cells; assay type: functional, cell-based; conditions: Homo sapiens
# [37] = biological target: Platelet-derived growth factor receptor beta (Homo sapiens, UniProt P09619); experiment: Inhibition of PDGFRbeta
# [38] = Half life in rat at 25 mg/kg, po; assay type: ADME, organism-based; parameters: dose 25 mg/kg, route oral; conditions: in vivo
# Proto-oncogene tyrosine-protein kinase Src, sequence (P12931 2-536 limits assumed): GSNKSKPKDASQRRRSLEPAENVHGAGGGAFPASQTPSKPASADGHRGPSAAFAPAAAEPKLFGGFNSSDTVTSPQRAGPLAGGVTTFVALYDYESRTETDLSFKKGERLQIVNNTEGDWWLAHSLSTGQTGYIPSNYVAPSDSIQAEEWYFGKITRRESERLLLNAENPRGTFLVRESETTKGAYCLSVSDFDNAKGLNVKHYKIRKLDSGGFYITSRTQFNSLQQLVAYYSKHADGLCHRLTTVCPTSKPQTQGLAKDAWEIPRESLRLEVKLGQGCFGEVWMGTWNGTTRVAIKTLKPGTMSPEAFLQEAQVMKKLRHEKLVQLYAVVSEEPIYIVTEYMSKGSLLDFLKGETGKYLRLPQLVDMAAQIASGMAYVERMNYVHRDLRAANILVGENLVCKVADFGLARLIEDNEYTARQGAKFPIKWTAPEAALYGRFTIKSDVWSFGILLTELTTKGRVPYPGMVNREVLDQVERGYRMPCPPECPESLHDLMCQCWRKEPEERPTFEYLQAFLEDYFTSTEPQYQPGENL
# Cytochrome P450 2C19, sequence (P33261 whole entry): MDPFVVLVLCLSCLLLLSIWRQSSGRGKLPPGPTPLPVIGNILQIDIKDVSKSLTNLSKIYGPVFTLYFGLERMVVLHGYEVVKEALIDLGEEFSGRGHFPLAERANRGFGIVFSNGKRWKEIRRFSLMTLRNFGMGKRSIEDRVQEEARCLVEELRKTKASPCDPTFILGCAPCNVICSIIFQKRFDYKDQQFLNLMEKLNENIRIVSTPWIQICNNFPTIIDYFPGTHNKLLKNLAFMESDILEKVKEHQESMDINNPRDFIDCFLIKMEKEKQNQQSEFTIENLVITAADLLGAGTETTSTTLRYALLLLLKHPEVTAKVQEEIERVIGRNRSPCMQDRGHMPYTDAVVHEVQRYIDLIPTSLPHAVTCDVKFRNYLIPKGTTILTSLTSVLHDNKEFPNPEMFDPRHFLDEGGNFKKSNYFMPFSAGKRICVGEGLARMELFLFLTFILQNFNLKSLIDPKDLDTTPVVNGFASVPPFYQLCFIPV
# Cytochrome P450 2D6, sequence (P10635 whole entry): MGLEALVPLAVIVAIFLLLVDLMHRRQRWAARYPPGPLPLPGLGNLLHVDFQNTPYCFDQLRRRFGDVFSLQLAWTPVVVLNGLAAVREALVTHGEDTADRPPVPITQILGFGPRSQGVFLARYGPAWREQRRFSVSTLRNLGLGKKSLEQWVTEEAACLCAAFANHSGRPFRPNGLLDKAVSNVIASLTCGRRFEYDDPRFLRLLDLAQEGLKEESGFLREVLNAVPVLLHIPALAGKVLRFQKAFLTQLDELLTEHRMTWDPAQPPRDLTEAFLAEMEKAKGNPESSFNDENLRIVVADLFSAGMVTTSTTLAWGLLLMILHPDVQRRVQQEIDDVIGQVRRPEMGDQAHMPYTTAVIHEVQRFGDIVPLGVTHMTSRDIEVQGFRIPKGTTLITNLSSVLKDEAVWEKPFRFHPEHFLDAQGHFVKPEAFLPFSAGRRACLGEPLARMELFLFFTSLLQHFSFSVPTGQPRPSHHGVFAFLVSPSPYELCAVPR
# Cytochrome P450 2C9, sequence (P11712 whole entry): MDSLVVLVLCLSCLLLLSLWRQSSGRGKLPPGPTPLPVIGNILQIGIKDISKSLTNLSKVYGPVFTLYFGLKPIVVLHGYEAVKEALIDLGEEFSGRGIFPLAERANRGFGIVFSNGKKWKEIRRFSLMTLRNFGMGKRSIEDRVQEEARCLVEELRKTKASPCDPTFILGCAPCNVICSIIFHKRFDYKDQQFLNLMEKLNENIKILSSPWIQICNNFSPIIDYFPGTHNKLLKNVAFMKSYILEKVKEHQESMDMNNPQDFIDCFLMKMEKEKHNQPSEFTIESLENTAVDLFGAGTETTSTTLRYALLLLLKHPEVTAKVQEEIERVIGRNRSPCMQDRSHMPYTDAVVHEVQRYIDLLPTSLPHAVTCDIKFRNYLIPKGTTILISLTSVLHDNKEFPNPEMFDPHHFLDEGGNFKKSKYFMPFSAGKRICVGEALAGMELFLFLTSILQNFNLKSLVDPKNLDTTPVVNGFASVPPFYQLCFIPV
# Cytochrome P450 3A4, sequence (P08684 whole entry): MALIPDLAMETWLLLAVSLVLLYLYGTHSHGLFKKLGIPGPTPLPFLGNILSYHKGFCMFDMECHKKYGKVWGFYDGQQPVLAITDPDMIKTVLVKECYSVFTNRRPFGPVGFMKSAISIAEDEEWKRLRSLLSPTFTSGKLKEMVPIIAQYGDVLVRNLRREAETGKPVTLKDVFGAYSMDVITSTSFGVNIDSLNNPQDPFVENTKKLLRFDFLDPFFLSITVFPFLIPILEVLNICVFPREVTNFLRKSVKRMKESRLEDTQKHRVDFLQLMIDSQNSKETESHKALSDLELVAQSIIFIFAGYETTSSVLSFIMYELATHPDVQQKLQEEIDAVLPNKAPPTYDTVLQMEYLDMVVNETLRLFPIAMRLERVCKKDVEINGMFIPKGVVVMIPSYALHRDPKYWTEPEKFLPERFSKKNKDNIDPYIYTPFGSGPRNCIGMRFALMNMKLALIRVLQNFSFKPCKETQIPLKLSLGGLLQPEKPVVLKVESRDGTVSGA
# Platelet-derived growth factor receptor beta, sequence (P09619 whole entry): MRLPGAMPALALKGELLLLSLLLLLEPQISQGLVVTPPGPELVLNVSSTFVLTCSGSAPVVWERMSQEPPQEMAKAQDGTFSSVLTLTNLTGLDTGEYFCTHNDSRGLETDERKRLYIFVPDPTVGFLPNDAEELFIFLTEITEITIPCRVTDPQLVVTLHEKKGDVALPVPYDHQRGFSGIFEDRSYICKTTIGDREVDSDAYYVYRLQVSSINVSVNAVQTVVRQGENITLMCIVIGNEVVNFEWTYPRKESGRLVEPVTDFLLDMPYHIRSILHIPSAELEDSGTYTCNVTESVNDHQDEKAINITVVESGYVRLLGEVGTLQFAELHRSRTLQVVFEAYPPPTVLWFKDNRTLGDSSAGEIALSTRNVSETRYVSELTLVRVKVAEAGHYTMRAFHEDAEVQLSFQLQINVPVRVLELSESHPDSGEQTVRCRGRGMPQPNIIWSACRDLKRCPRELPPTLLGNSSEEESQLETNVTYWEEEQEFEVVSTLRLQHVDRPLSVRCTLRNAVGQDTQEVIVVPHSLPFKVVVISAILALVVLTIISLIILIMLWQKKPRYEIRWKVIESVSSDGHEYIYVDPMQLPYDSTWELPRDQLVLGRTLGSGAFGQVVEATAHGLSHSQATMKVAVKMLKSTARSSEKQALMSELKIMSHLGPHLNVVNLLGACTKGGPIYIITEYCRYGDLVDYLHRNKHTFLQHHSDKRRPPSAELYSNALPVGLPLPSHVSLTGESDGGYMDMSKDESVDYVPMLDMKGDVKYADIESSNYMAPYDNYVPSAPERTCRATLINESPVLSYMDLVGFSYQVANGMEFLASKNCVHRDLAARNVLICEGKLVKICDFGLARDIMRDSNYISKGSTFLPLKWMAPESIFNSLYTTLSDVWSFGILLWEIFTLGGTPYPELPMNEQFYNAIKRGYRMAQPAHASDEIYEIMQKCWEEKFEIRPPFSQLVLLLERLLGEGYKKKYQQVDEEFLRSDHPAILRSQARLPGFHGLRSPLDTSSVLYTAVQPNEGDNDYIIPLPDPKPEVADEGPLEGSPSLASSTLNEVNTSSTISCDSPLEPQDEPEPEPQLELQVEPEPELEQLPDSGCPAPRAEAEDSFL
smiles,measurement,setting,value
Cc1ccc2nnc(Nc3ccc(S(=O)(=O)NCCN4CCCC4)cc3)nc2c1,pIC50,[1],< 5.00
Cc1cc2nc(Nc3ccc(S(=O)(=O)NCCN4CCCC4)cc3)nnc2cc1Br,pIC50,[1],< 5.00
COc1cc2c(cc1O)CCN[C@]21CS[C@H]2c3c(OC(C)=O)c(C)c4c(c3[C@@H](COC1=O)N1[C@@H]2[C@H]2c3c(cc(C)c(OC)c3O)C[C@@H]([C@@H]1O)N2C)OCO4,pIC50,[1],6.68
Cc1cccc(C)c1-c1cc(C)c2nc(Nc3cccc(N(CCN4CCCC4)C(=O)c4ccccc4)c3)nnc2c1,pIC50,[1],7.74
CC(=O)Nc1cc(-c2c(C)cccc2C)cc2nnc(Nc3ccc(OCCN4CCCC4)cc3)nc12,pIC50,[1],7.85
COc1ccc(Cl)c(-c2cc(C)c3nc(Nc4ccc(OCCN5CCCC5)cc4)nnc3c2)c1,pIC50,[1],6.11
c1ccc2nc(Nc3ccc(OCCN4CCCC4)cc3)nnc2c1,pIC50,[1],< 5.00
CNc1cc(-c2c(C)cccc2C)cc2nnc(Nc3ccc(OCCN4CCCC4)cc3)nc12,pIC50,[1],8.00
CCN(CC)CCOc1cccc(Nc2nnc3cc(-c4c(C)cccc4C)cc(C)c3n2)c1,pIC50,[2],5.60
Cc1cc2nc(Nc3ccc(S(=O)(=O)NCCN4CCCC4)cc3)nnc2cc1N,pIC50,[1],7.04
Clc1cccc(Cl)c1-c1ccc2nc(Nc3ccc(OCCN4CCCC4)cc3)nnc2c1,pIC50,[1],7.52
Cc1cccc(C)c1-c1cc(C)c2nc(Nc3ccnc(OCCN4CCCC4)c3)nnc2c1,pIC50,[2],5.62
Cc1ccc(CN)cc1-c1cc(C)c2nc(Nc3ccc(S(=O)(=O)NCCN4CCCC4)cc3)nnc2c1,pIC50,[1],6.45
Cc1cc(-c2c(Cl)cccc2Cl)cc2nnc(Nc3ccc(OCCN4CCCC4)cc3)nc12,pIC50,[3],5.60
same,pIC50,[4],4.92
same,pIC50,[5],6.05
same,Vdss,[6],9.4 L/kg
same,pIC50,[7],< 4.00
same,pIC50,[8],6.67
same,pIC50,[9],6.62
same,Cmax,[10],348 ng/mL
same,Vdss,[11],16.1 L/kg
same,Tmax,[12],8.8 h
same,Vdss,[13],18.7 L/kg
same,AUC,[14],8010 ng·h/mL
same,pIC50,[15],< 5.30
same,Tmax,[16],8 h
same,pIC50,[17],< 4.00
same,half-life,[18],13 h
same,pIC50,[19],4.21
same,pIC50,[20],6.60
same,Activity,[21],60%
same,bioavailability,[22],42%
same,CL/F,[23],12.7 mL/min/kg
same,pIC50,[24],4.48
same,Cmax,[25],679 ng/mL
same,Tmax,[26],4 h
same,pIC50,[2],6.12
same,half-life,[27],8 h
same,CL/F,[28],14.5 mL/min/kg
same,Activity,[29],86%
same,AUC,[30],15300 ng·h/mL
same,bioavailability,[31],74%
same,Cmax,[32],415 ng/mL
same,CL/F,[33],12.7 mL/min/kg
same,AUC,[34],8680 ng·h/mL
same,bioavailability,[35],35%
same,pIC50,[36],7.07
same,pKi,[37],5.68
same,half-life,[38],4.6 h
Cc1cccc(C)c1-c1cc(C)c2nc(Nc3ccc(OCCN4CCCC4)cc3)nnc2c1,pIC50,[4],4.92
same,Vdss,[6],7.2 L/kg
same,pIC50,[7],< 4.00
same,Cmax,[10],419 ng/mL
same,Vdss,[11],11.4 L/kg
same,Tmax,[12],6 h
same,Vdss,[13],8.6 L/kg
same,AUC,[14],9570 ng·h/mL
same,Tmax,[16],6 h
same,pIC50,[17],< 4.00
same,half-life,[18],19 h
same,pIC50,[19],4.38
same,bioavailability,[22],68%
same,CL/F,[23],18.8 mL/min/kg
same,pIC50,[24],4.60
same,Cmax,[25],5240 ng/mL
same,Tmax,[26],1.5 h
same,pIC50,[2],5.64
same,half-life,[27],9.5 h
same,CL/F,[28],5.1 mL/min/kg
same,AUC,[30],19100 ng·h/mL
same,bioavailability,[31],86%
same,Cmax,[32],790 ng/mL
same,CL/F,[33],9.2 mL/min/kg
same,AUC,[34],9680 ng·h/mL
same,bioavailability,[35],20%
same,half-life,[38],5.6 h
Cc1cccc(C)c1-c1cc(C)c2nc(Nc3ccc(OCCN4CCN(C)CC4)cc3)nnc2c1,pIC50,[2],5.18
Cc1cccc(C)c1-c1cc(C)c2nc(Nc3ccc(C(=O)NN4CCNCC4)cc3)nnc2c1,pIC50,[1],7.89
Cc1cccc(C)c1-c1cc(NS(C)(=O)=O)c2nc(Nc3ccc(OCCN4CCCC4)cc3)nnc2c1,pIC50,[1],7.68
Cc1cccc(C)c1-c1cc(N)c2nc(Nc3ccc(OCCN4CCCC4)cc3)nnc2c1,pIC50,[1],8.00
Cc1cccc(C)c1-c1cc(C)c2nc(Nc3ccc(C(=O)NN4CCN(C)CC4)cc3)nnc2c1,pIC50,[1],7.82
same,pIC50,[2],5.17
Cc1cnc(F)cc1-c1cc(C)c2nc(Nc3ccc(OCCN4CCCC4)cc3)nnc2c1,pIC50,[1],6.69
Cc1cccc(C)c1-c1cc(C)c2nc(Nc3ccc(N(CCN4CCCC4)C(=O)c4ccccc4)cc3)nnc2c1,pIC50,[1],7.80
same,pIC50,[2],5.62
